Literature values as cited in patent publication US20260000671A1, “CONCENTRATED SOLUTIONS COMPRISING 5,10-METHYLENE-(6R)-TETRAHYDROFOLIC ACID” (Merck Patent GMBH, priority 2022, published 2026).

Which “purity 24 hours following dissolution in water” value (24 hours following dissolution in water, % normalized purity) does the source give for `Nc1nc2c(c(=O)[nH]1)N1CN(c3ccc(C(=O)N[C@@H](CCC(=O)O)C(=O)O)cc3)C[C@H]1CN2` [5,10-methylene-(6R,S)-tetrahydrofolic acid] here?
The value was 44.9 % of the starting purity.

And the “stability profile in words” value (following dissolution in water, FIG. 1)?
The value was “degraded rapidly over time”.

What about the “purity after 7 hours” value (re-constituted lyophilizate, after 7 hours) of the same compound?
Its value is 84%.

And the “purity loss per hour (degradation rate, slope of best-fit line)” value (re-constituted lyophilizate, linear regression of stability profile)?
Its value is 2.3 % purity per hour.
